Laboratory results taken from PubChem BioAssay (NCI).
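These data come from cells grown in 96-well plates and exposed to compound for 48 hours at five concentrations. GI50 = concentration required for 50% inhibition of growth. TGI marks complete inhibition of growth.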

Legend:
Test in all cases: DTP human tumour cell line panel, 48 h
SK-OV-3 ovarian = system: SK-OV-3 ovarian
DU-145 prostate = system: DU-145 prostate
UO-31 renal = system: UO-31 renal
SK-MEL-5 melanoma = system: SK-MEL-5 melanoma
SNB-19 CNS = system: SNB-19 CNS
NCI-H226 lung = system: NCI-H226 lung
M14 melanoma = system: M14 melanoma
MDA-MB-231 breast = system: MDA-MB-231 breast
SK-MEL-28 melanoma = system: SK-MEL-28 melanoma
SNB-75 CNS = system: SNB-75 CNS
LOX IMVI melanoma = system: LOX IMVI melanoma
OVCAR-4 ovarian = system: OVCAR-4 ovarian
BT-549 breast = system: BT-549 breast
A498 renal = system: A498 renal
NCI/ADR-RES ovarian = system: NCI/ADR-RES ovarian
NCI-H23 lung = system: NCI-H23 lung
MDA-MB-435 = system: MDA-MB-435
OVCAR-3 ovarian = system: OVCAR-3 ovarian
SW-620 colon = system: SW-620 colon
RPMI-8226 leukemia = system: RPMI-8226 leukemia
SF-268 CNS = system: SF-268 CNS
OVCAR-8 ovarian = system: OVCAR-8 ovarian
HOP-62 NSCLC = system: HOP-62 NSCLC
HCT-116 colon = system: HCT-116 colon
OVCAR-5 ovarian = system: OVCAR-5 ovarian
COLO 205 colon = system: COLO 205 colon
UACC-62 melanoma = system: UACC-62 melanoma
K-562 leukemia = system: K-562 leukemia
SF-539 CNS = system: SF-539 CNS

`COc1ccc(/C(=N\NC(N)=S)c2ccc(Cl)cc2)cc1OC` was tested. Which GI50 (SK-OV-3 ovarian) did it give?
Its GI50 is 3.38 µM.

What about the TGI (SK-OV-3 ovarian) of the same compound?
The TGI was 16.1 µM.

And the GI50 (DU-145 prostate)?
The GI50 was 5.95 µM.

What about the TGI (DU-145 prostate) of the same compound?
The TGI was 22.5 µM.

And the GI50 (UO-31 renal)?
The GI50 was 3.34 µM.

What about the TGI (UO-31 renal) of the same compound?
Its TGI is 16.6 µM.

And the GI50 (SK-MEL-5 melanoma)?
Its GI50 is 4.14 µM.

What about the TGI (SK-MEL-5 melanoma) of the same compound?
Its TGI is 14 µM.

And the GI50 (SNB-19 CNS)?
The GI50 was 5.22 µM.

What about the TGI (SNB-19 CNS) of the same compound?
The TGI was 21.5 µM.

And the GI50 (NCI-H226 lung)?
Its GI50 is 2.72 µM.

What about the TGI (NCI-H226 lung) of the same compound?
Its TGI is 17.6 µM.

What about the GI50 (M14 melanoma) of the same compound?
The GI50 was 2.93 µM.

And the TGI (M14 melanoma)?
The TGI was 15.2 µM.

What about the GI50 (MDA-MB-231 breast) of the same compound?
Its GI50 is 4.48 µM.

And the TGI (MDA-MB-231 breast)?
The TGI was 18.2 µM.

What about the GI50 (SK-MEL-28 melanoma) of the same compound?
The GI50 was 6.95 µM.

What about the TGI (SK-MEL-28 melanoma) of the same compound?
Its TGI is 21.7 µM.

And the GI50 (SNB-75 CNS)?
The GI50 was 1.69 µM.

And the TGI (SNB-75 CNS)?
The TGI was 6.73 µM.

And the GI50 (LOX IMVI melanoma)?
Its GI50 is 4.41 µM.

What about the TGI (LOX IMVI melanoma) of the same compound?
Its TGI is 18.2 µM.

What about the GI50 (OVCAR-4 ovarian) of the same compound?
The GI50 was 7.01 µM.

And the TGI (OVCAR-4 ovarian)?
Its TGI is 40.7 µM.

What about the GI50 (BT-549 breast) of the same compound?
Its GI50 is 2.4 µM.

What about the TGI (BT-549 breast) of the same compound?
The TGI was 6.33 µM.

And the GI50 (A498 renal)?
Its GI50 is 5.93 µM.

What about the TGI (A498 renal) of the same compound?
The TGI was 13.4 µM.

And the GI50 (NCI/ADR-RES ovarian)?
The GI50 was 2.34 µM.

And the TGI (NCI/ADR-RES ovarian)?
The TGI was 9.89 µM.

And the GI50 (NCI-H23 lung)?
Its GI50 is 4.7 µM.

What about the TGI (NCI-H23 lung) of the same compound?
Its TGI is 18.2 µM.

What about the GI50 (MDA-MB-435) of the same compound?
Its GI50 is 0.638 µM.

And the TGI (MDA-MB-435)?
Its TGI is 2.84 µM.

What about the GI50 (OVCAR-3 ovarian) of the same compound?
The GI50 was 3.47 µM.

What about the TGI (OVCAR-3 ovarian) of the same compound?
Its TGI is 14.9 µM.

And the GI50 (SW-620 colon)?
The GI50 was 3.65 µM.

And the TGI (SW-620 colon)?
Its TGI is 17.5 µM.

And the GI50 (RPMI-8226 leukemia)?
Its GI50 is 3.4 µM.

What about the TGI (RPMI-8226 leukemia) of the same compound?
The TGI was 16.4 µM.

And the GI50 (SF-268 CNS)?
Its GI50 is 8.87 µM.

What about the TGI (SF-268 CNS) of the same compound?
Its TGI is 30.3 µM.

What about the GI50 (OVCAR-8 ovarian) of the same compound?
The GI50 was 4.41 µM.

What about the TGI (OVCAR-8 ovarian) of the same compound?
Its TGI is 20.5 µM.

What about the GI50 (HOP-62 NSCLC) of the same compound?
Its GI50 is 4.38 µM.

What about the TGI (HOP-62 NSCLC) of the same compound?
Its TGI is 20.8 µM.

What about the GI50 (HCT-116 colon) of the same compound?
The GI50 was 3.59 µM.

And the TGI (HCT-116 colon)?
Its TGI is 15.6 µM.

What about the GI50 (OVCAR-5 ovarian) of the same compound?
Its GI50 is 5.44 µM.

And the TGI (OVCAR-5 ovarian)?
Its TGI is 21.3 µM.

And the GI50 (COLO 205 colon)?
The GI50 was 3.37 µM.

And the TGI (COLO 205 colon)?
Its TGI is 10.8 µM.

What about the GI50 (UACC-62 melanoma) of the same compound?
Its GI50 is 3.7 µM.

What about the TGI (UACC-62 melanoma) of the same compound?
The TGI was 19.6 µM.

What about the GI50 (K-562 leukemia) of the same compound?
Its GI50 is 1.04 µM.

What about the TGI (K-562 leukemia) of the same compound?
Its TGI is greater than 41.1 µM.

What about the GI50 (SF-539 CNS) of the same compound?
The GI50 was 2.63 µM.

What about the TGI (SF-539 CNS) of the same compound?
The TGI was 9.11 µM.
